Series [1] relates to wild type Ebola virus, Mayinga strain. Briefly: microbe, parasite or virus in culture. Conditions: for IC50: Zaire ebolavirus, Huh-7, 24 h, read-out: EBOV IC50. It is filed as cell-based.
Another series deals with MARV. Briefly: organism not typed. Conditions: read-out: MARV IC50. It is filed as cell-based, Marburg virus.
The test system of a further series is EBOV virus. Set-up: species or system BALB/c mice. Conditions: mouse, in vivo.
A further series has as its system EBOV. Set-up: species or system murine. Conditions: mouse, in vivo.
A short description of another series: physchem. Conditions: pH 7.4, aqueous buffer, kinetic from dmso stock.

“And” between values parts separate entries of the source, which are not always exact repeats. Equal values may be shown once. Read-outs that look alike come from different tables or passages of the source.

In general, IC50 refers to the point on the concentration scale where inhibition reaches its midpoint. The solubility is the dissolved amount per volume that the medium holds. A high value points to a readily soluble substance. For the compound `COc1cc2c(cc1OC)[C@@H](Cc1ccc(Oc3cc(C[C@@H]4c5cc(OC)c(OC)cc5CCN4C)ccc3OC)c(OC)c1)N(C)CC2` [Compound 2], in series [1], the IC50 is 1.05 ± 0.09 µM. Also, the IC50 in the series on MARV was determined as 1.24 ± 0.269 µM. Moreover, in the series with EBOV virus, the “% Survival” value was 100%; the “Efficacy against Ebola virus challenge (in words)” value is “statistically significant improvement when compared to TETN and saline”; the Survival is 7/7. In the series on EBOV, the “% Survival” value was 57% and 43%; the “Efficacy (in words)” value is on record as “good efficacy”; the Survival is 4/7 and 3/7. In addition, the “Efficacy (in words)” value in the series on EBOV (5 mg/kg) is “moderate efficacy”. This compound returned a solubility in the series “physchem” of over 100 µM.

For the compound `COc1ccc2c(c1)CCN(Cc1ccccc1)[C@@H]2Cc1ccc(Oc2ccc(C[C@@H]3c4ccc(OC)cc4CCN3Cc3ccccc3)cc2)cc1` [Compound 42], the IC50 (in series [1]; in the series with MARV) was over 1 µM in each case.

Consider `COc1cc2c(cc1OC)[C@@H](Cc1ccc(Oc3ccc(C[C@@H]4c5cc(OC)c(OC)cc5CCN4C)cc3OC)c(OC)c1)N(C)CC2` [Compound 1], for which the IC50 in series [1] amounted to 0.73 ± 0.06 µM. Also, the IC50 in the series with MARV turned out to be 0.506 ± 0.087 µM. Besides, in the series with EBOV virus, the “% Survival” value was 100%; the “Efficacy against Ebola virus challenge (in words)” value was “statistically significant improvement when compared to TETN and saline”; the Survival is 7/7. Also, in the series with EBOV, the “Efficacy (in words)” value was “good efficacy”; the Survival was 4/7 and 0/7. The compound further yielded a solubility in “physchem” of over 100 µM.

In the case of `COc1cc2c(cc1OC)[C@@H](Cc1cccc(Oc3ccc(C[C@@H]4c5cc6c(cc5CCN4C)OCO6)cc3)c1)N(C)CC2` [Compound B4-36], the figures for the IC50 (in series [1]; with MARV) were 0.415 ± 0.043 µM and 0.487 ± 0.088 µM, respectively.

`COc1ccc2cc1Oc1ccc(cc1)C[C@H]1c3cc(c(OC)cc3CCN1C)Oc1c(OC)c(OC)cc3c1[C@H](C2)N(C)CC3` [TETN, tetrandrine, reference compound]: in series [1], the IC50 was 0.292 ± 0.031 µM. The IC50 with MARV came out at 0.37 ± 0.095 µM. In the series on EBOV virus, the “% Survival” value came out at 57% and the Survival is listed as 4/7. In the series “physchem”, this compound showed a solubility of over 100 µM.

In the case of `CN1CCc2cc3c(cc2[C@H]1Cc1cccc(Oc2cccc(C[C@@H]4c5cc6c(cc5CCN4C)OCO6)c2)c1)OCO3` [Compound B3-35], the IC50 in series [1] is 0.789 ± 0.097 µM; with MARV, 0.537 ± 0.06 µM.

Take `COc1ccc2c(c1)CCN(C)[C@@H]2Cc1ccc(Oc2ccc(C[C@@H]3c4ccc(OC)cc4CCN3C)cc2)cc1` [B4-14^RR]: the “EBOV activity (in words)” value in series [1] is given as “good activity”.

On to `COc1cc2c(cc1OC)[C@@H](Cc1cccc(Oc3cccc(C[C@@H]4c5cc6c(cc5CCN4C)OCO6)c3)c1)N(C)CC2` [B3-36^R,R], for which the half-inhibitory concentration (IC50) in series [1] worked out at 0.413 ± 0.051 µM; with MARV, 0.495 ± 0.066 µM.

Turning to `COc1ccc2c(c1)CCN(C)[C@@H]2Cc1cccc(Oc2ccc(C[C@@H]3c4cc5c(cc4CCN3C)OCO5)cc2)c1` [Compound B4-31], the IC50 in series [1] amounted to 0.775 ± 0.156 µM; in the series on MARV, 1.19 ± 0.105 µM.

`COc1ccc2c(c1)CCN(C)[C@@H]2Cc1cccc(Oc2cc(C[C@@H]3c4ccc(OC)cc4CCN3C)ccc2OC)c1` [Compound B3-12]: the results for the IC50 (in series [1]; in the series with MARV) were 1.11 ± 0.179 µM and 0.839 ± 0.158 µM, respectively.

Take `COc1cc2c(cc1OC)[C@@H](Cc1ccc(Oc3ccc(C[C@@H]4c5cc(OC)c(OC)cc5CCN4C)cc3OC)nc1)N(C)CC2` [Compound 4]: the IC50 in series [1] is 0.446 ± 0.057 µM. Moreover, the 50% inhibitory concentration (IC50) in the series on MARV was determined as 0.566 ± 0.108 µM. Moreover, in the series on EBOV virus, the “% Survival” value amounted to 71%, the “Efficacy against Ebola virus challenge (in words)” value is “good efficacy” and the Survival was 5/7. In “physchem”, this compound yielded a solubility of over 100 µM.

As for `COc1ccc2c(c1)CCN(C)[C@@H]2Cc1ccc(Oc2ccc(C[C@@H]3c4ccc(OC)cc4CCN3C)cc2OC)cc1` [Compound B4-17], the IC50 in series [1] was determined as 0.134 ± 0.016 µM; in the series with MARV it was 0.133 ± 0.026 µM.

As to `COc1ccc2c(c1)CCN(C)[C@@H]2Cc1ccc(Oc2ccc(C[C@@H]3c4cc(OC)c(OC)cc4CCN3C)cn2)c(OC)c1` [Compound 5], the IC50 in series [1] came to 0.505 ± 0.032 µM; in the series on MARV it was 0.414 ± 0.07 µM. Also, the solubility in “physchem” was over 100 µM.

Take `COc1cc2c(cc1OC)[C@@H](Cc1ccc(Oc3cccc(C[C@@H]4c5cc(OC)c(OC)cc5CCN4C)c3)cc1)N(C)CC2` [Compound B4-26]: the IC50 in series [1] worked out at 0.53 ± 0.081 µM; in the series with MARV, 0.77 ± 0.089 µM.

For the compound `COc1ccc2c(c1)CCN(C(C)C)[C@@H]2Cc1ccc(Oc2ccc(C[C@@H]3c4ccc(OC)cc4CCN3C(C)C)cc2)cc1` [Compound 41], the IC50 turned out to be 0.249 ± 0.019 µM in series [1] and 0.188 ± 0.04 µM with MARV.

Take `COc1cc(C[C@@H]2c3cc4c(cc3CCN2C)OCO4)ccc1Oc1ccc(C[C@@H]2c3cc4c(cc3CCN2C)OCO4)cc1OC` [Compound 45]: the IC50 in series [1] was 0.372 ± 0.034 µM; in the series with MARV it was 0.339 ± 0.056 µM.

Regarding `COc1ccc2c(c1)CCN(C)[C@@H]2Cc1cccc(Oc2ccc(C[C@@H]3c4cc(OC)c(OC)cc4CCN3C)cc2)c1` [Compound B4-21], the concentration for half-maximal inhibition (IC50) in series [1] amounted to 0.424 ± 0.082 µM; in the series with MARV it was 0.467 ± 0.093 µM.

Consider `COc1cc2c(cc1OC)[C@@H](Cc1cccc(Oc3cc(C[C@@H]4c5cc(OC)c(OC)cc5CCN4C)ccc3OC)c1)N(C)CC2` [Compound 51], for which the figures for the IC50 (in series [1]; in the series on MARV) were 1.09 ± 0.072 µM and 1.18 ± 0.179 µM, respectively.

With `COc1cc2c(cc1OC)[C@@H](Cc1ccc(Oc3cccc(C[C@@H]4c5cc(OC)c(OC)cc5CCN4C)c3)nc1)N(C)CC2` [Compound 48], the IC50 came to 0.875 ± 0.11 µM in series [1] and 1.49 ± 0.32 µM in the series with MARV.

In the case of `COc1ccc2c(c1)CCN(C)[C@@H]2Cc1ccc(Oc2ccc(C[C@@H]3c4cc(OC)c(OC)cc4CCN3C)cc2)cc1` [Compound B4-24], the values for the IC50 (in series [1]; in the series on MARV) were 0.125 ± 0.026 µM and 0.13 ± 0.049 µM, respectively.

In the case of `COc1ccc2c(c1)CCN(C)[C@@H]2Cc1ccc(Oc2ccc(C[C@@H]3c4cc5c(cc4CCN3C)OCO5)cc2)cc1` [Compound B4-34], the IC50 amounted to 0.065 ± 0.016 µM in series [1] and 0.148 ± 0.048 µM in the series with MARV.

Turning to `COc1cc2c(cc1OC)[C@@H](Cc1ccc(OC)c(Oc3cc(C[C@@H]4c5cc(OC)c(OC)cc5CCN4C)ccc3OC)c1)N(C)CC2` [Compound 3], the IC50 in series [1] was found to be 1.22 ± 0.119 µM. Also, the IC50 in the series with MARV was 1.1 ± 0.222 µM. Further, in the series with EBOV virus, the “% Survival” value is given as 71%, the “Efficacy against Ebola virus challenge (in words)” value is on record as “good efficacy” and the Survival was 5/7. The compound further came in with a solubility in “physchem” of over 100 µM.

Take `COc1ccc(C[C@@H]2c3cc4c(cc3CCN2C)OCO4)cc1Oc1cc(C[C@@H]2c3cc4c(cc3CCN2C)OCO4)ccc1OC` [Compound 52]: the IC50 in series [1] was determined as 0.615 ± 0.04 µM; with MARV, 0.585 ± 0.154 µM.

On to `COc1ccc2c(c1)CCN(C)[C@@H]2Cc1ccc(OC)c(Oc2cc(C[C@@H]3c4ccc(OC)cc4CCN3C)ccc2OC)c1` [Compound B3-42], for which the half-maximal inhibitory concentration (IC50) was 0.617 ± 0.045 µM in series [1] and 0.418 ± 0.047 µM in the series with MARV.

Values taken from US20190275027A1 (priority 2018, published 2019).
